Results: patent publication US5707966A, “Antithrombotic agents” (Eli Lilly and Company, priority 1995, dated 1998)
Where a name gives a salt, the structure may show the parent alone. Read-outs that look alike come from different tables or passages of the source.

What was measured:
Assay type in all cases: biochemical
Human Thrombin = Human Thrombin (Homo sapiens, UniProt P00734); experiment: Inhibition of amidase activity of thrombin (Kass)
factor Xa = molecular target: T1, factor Xa (Homo sapiens, UniProt P00742); experiment: Kass with factor Xa, chromogenic substrate
T1 construct: Human factors X, Xa, IXa, XIa, and XIIa are purchased; purchased Enzyme Research Laboratories, South Bend, Ind

Bovine trypsin = molecular target: T2, Bovine trypsin (Bos taurus, UniProt P00760); experiment: Kass with trypsin, chromogenic substrate
T2 construct: Bovine trypsin is purchased; purchased Worthington Biochemicals, Freehold, N.J
T2 sequence (P00760 24-246): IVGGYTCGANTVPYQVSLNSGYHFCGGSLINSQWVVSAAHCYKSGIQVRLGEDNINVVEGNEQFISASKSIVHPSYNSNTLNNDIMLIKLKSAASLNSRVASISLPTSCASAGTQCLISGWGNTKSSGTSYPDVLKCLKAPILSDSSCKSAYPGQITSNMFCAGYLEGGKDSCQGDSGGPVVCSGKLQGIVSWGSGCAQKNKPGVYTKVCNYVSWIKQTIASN

Human plasmin = molecular target: T3, Human plasmin (Homo sapiens, UniProt P00747); experiment: Kass with plasmin, chromogenic substrate
T3 construct: Human plasmin is purchased; purchased Boehringer Mannheim, Indianapolis, Ind
Protocol: (§1) By substantially following the procedures described above for human thrombin, and using other human blood coagulation system serine proteases and proteases of the fibrinolytic system with the appropriate chromogenic substrates, identified below, selectivity of the compounds of the present invention with respect to the coagulation factor serine proteases and with respect to the fibrinolytic system serine proteases are evaluated as well as their substantial lack of interference with serine proteases of the fibrinolytic system. Thrombin inhibitors preferably should spare fibrinolysis induced by urokinase, tissue plasminogen activator (t-PA) and streptokinase. This would be important to the therapeutic use of such agents as an adjunct to streptokinase, t-PA or urokinase thrombolytic therapy and to the use of such agents as an endogenous fibrinolysis-sparing (with respect to t-PA and urokinase) antithrombotic agent. In addition to the lack of interference with the amidase activity of the fibrinolytic proteases, such fibrinolytic system sparing can be studied by the use of human plasma clots and their lysis by the respective fibrinolytic plasminogen activators.
(§2) Human plasmin is purchased from Boehringer Mannheim, Indianapolis, Ind.; nt-PA is purchased as single chain activity reference from American Diagnostica, Greenwich, Conn. modified-t-PA6 (mt-PA6) is prepared at Eli Lilly and Company by procedure known in the art (See, Burck, et al., J. Biol. Chem., 265, […] (1990). Plasmin chromogenic substrate H-D-Val-Leu-Lys-p-nitroanilide and tissue plasminogen activator (t-PA) substrate H-D-Ile-Pro-Arg-p-nitroanilide are purchased from Kabi Vitrum, Stockholm, Sweden.

t-PA = molecular target: T4, t-PA (Homo sapiens, UniProt P00750); experiment: Kass with t-PA, chromogenic substrate; conditions: substrate H-D-Ile-Pro-Arg-p-nitroanilide
T4 construct: purchased American Diagnostica, Greenwich, Conn
Protocol: as §1, §2

Human plasma [1] = experiment: Human plasma anticoagulation, thrombin time (TT); conditions: concentration required to double the thrombin time, linear extrapolation
In short: (§3)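 In plasma from human donors, spiked with a range of compound levels, an automated coagulometer recorded clot formation after thromboplastin (PT), Actin then calcium (APTT) or 10 NIH units/mL thrombin (TT); doubling concentrations were extrapolated linearly.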

Human plasma [2] = experiment: Human plasma anticoagulation, activated partial thromboplastin time (APTT); conditions: concentration required to double the APTT, linear extrapolation
In short: as §3

Human plasma [3] = experiment: Human plasma anticoagulation, prothrombin time (PT); conditions: concentration required to double the PT, linear extrapolation
In short: as §3

[4] = mean over a range of concentrations, […]
[5] = substrate N-Benzoyl-Ile-Glu-Gly-Arg-p-nitroanilide
[6] = substrate N-Benzoyl-Phe-Val-Arg-p-nitroanilide
[7] = substrate H-D-Val-Leu-Lys-p-nitroanilide

T1 sequence (P00742 235-488 limits assumed): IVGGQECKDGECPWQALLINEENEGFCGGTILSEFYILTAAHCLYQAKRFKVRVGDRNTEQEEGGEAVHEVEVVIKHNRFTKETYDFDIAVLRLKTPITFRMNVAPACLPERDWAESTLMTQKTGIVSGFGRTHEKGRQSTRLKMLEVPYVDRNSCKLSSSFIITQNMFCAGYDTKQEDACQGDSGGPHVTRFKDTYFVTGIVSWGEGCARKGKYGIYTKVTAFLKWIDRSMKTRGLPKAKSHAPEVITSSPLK
T1 sequence (P00742 41-179 partner limits assumed): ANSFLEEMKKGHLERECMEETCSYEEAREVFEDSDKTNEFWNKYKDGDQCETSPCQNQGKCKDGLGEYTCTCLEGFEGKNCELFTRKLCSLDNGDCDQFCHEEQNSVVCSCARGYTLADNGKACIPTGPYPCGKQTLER
T3 sequence (P00747 97-810): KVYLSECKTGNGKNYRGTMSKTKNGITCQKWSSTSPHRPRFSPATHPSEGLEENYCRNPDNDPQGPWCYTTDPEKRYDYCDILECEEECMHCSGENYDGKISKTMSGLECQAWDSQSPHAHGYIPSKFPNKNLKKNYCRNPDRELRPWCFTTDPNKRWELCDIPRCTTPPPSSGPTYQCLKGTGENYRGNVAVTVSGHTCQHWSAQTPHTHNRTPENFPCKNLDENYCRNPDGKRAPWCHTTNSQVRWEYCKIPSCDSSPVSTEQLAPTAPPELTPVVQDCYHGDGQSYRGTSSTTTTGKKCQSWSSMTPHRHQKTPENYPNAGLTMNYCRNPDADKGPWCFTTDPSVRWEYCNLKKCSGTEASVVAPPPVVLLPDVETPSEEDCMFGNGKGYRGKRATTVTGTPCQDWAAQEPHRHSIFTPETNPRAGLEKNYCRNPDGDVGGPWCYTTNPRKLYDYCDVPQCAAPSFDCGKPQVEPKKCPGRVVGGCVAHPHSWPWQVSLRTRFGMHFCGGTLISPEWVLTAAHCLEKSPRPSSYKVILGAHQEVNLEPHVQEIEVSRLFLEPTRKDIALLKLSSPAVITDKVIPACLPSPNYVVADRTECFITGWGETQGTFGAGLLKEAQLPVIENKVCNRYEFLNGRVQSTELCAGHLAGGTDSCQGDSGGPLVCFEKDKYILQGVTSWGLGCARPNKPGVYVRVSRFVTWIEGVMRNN
T3 sequence (P00747 97-580 partner limits assumed): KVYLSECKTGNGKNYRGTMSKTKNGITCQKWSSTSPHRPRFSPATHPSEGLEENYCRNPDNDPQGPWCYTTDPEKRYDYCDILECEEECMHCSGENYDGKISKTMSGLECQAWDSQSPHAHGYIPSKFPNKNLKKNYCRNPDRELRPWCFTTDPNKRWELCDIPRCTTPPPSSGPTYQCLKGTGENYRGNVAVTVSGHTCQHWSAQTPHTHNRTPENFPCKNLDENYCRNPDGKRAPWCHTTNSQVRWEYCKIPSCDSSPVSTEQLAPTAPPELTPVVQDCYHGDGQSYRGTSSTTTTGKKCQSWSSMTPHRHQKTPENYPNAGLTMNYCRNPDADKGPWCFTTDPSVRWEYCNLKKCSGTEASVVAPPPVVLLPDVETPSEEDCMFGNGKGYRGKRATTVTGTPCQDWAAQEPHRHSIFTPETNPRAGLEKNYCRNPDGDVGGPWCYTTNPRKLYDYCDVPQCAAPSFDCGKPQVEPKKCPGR
T4 sequence (P00750 36-562): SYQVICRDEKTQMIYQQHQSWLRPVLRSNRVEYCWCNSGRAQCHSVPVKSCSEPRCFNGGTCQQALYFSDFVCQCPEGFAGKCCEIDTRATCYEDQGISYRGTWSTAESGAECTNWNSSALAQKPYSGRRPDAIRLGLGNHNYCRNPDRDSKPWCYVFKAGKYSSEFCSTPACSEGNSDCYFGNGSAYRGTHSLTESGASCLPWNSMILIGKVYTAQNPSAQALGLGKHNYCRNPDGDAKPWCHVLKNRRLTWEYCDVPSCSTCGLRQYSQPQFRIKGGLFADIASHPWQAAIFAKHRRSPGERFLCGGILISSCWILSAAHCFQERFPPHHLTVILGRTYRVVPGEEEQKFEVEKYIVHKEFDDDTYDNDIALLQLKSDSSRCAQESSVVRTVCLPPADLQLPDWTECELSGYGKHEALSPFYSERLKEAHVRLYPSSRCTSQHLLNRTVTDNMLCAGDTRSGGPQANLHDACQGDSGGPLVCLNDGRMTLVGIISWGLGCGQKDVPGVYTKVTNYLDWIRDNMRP

Kass Human Thrombin (Human Thrombin; [4]) | Kass Xa (factor Xa; [5]) | Kass Trypsin (Bovine trypsin; [6]) | Kass Plasmin (Human plasmin; [7]) | Kass t-PA (t-PA) | Compound | Human Plasma Anticoagulation 2× Clotting time TT (Human plasma [1]) | Human Plasma Anticoagulation 2× Clotting time APTT (Human plasma [2]) | Human Plasma Anticoagulation 2× Clotting time PT (Human plasma [3]) | Kass Human Thrombin (Human Thrombin) | Kass Xa (factor Xa) | Kass Trypsin (Bovine trypsin) | Kass Plasmin (Human plasmin)
40 × 10^6 (L/mole) | 4.3 × 10^6 (L/mole) | 2,200 × 10^6 (L/mole) | 1.8 × 10^6 (L/mole) | 0.04 × 10^6 (L/mole) | CC(C)CC[C@H]1C[C@@H](C(=O)NCc2ccc(C(=N)N)cc2)N(C(=O)[C@@H](CC2CCCCC2)NCC(=O)O)C1 (relative stereo) [Example 50] | 35 ng/mL | 460 ng/mL | 420 ng/mL | – | – | – | –
0.29 × 10^6 (L/mole) | 0.02 × 10^6 (L/mole) | 0.02 × 10^6 (L/mole) | < 0.001 × 10^6 (L/mole) | 0.02 × 10^6 (L/mole) | CCS(=O)(=O)N[C@H](Cc1ccccc1)C(=O)N1CCC[C@H]1C(=O)NCCc1cccc(C(=N)N)c1 [Example 27, EtSO2 -D-Phe-Pro-m-NHCH2 CH2 --C6 H4 C(=NH)NH2.HCl] | 1,940 ng/mL | 27,800 ng/mL | 27,000 ng/mL | – | – | – | –
0.95 × 10^6 (L/mole) | 0.01 × 10^6 (L/mole) | 0.11 × 10^6 (L/mole) | < 0.001 × 10^6 (L/mole) | < 0.001 × 10^6 (L/mole) | N=C(N)c1ccc(CCNC(=O)[C@@H]2CCCN2C(=O)[C@@H]2NCC[C@@H]3CCCC[C@@H]32)cc1 [Example 28, 1-Piq-Pro-p-NHCH2 CH2 --C6 H4 C(=NH)NH2.2HCl] | 520 ng/mL | 8,100 ng/mL | 8,300 ng/mL | – | – | – | –
0.76 × 10^6 (L/mole) | 0.02 × 10^6 (L/mole) | 0.02 × 10^6 (L/mole) | < 0.001 × 10^6 (L/mole) | < 0.001 × 10^6 (L/mole) | N=C(N)c1cccc(CCNC(=O)[C@@H]2CCCN2C(=O)[C@@H]2NCC[C@@H]3CCCC[C@@H]32)c1 [Example 29, 1-Piq-Pro-m-NHCH2 CH2 --C6 H4 C(=NH)NH2.2HCl] | 750 ng/mL | 9,800 ng/mL | 15,800 ng/mL | – | – | – | –
0.55 × 10^6 (L/mole) | 0.02 × 10^6 (L/mole) | 0.03 × 10^6 (L/mole) | < 0.001 × 10^6 (L/mole) | < 0.001 × 10^6 (L/mole) | CCS(=O)(=O)N[C@H](Cc1ccccc1)C(=O)N1CCC[C@H]1C(=O)NCCCc1ccc(C(=N)N)cc1 [Example 30, EtSO2 -D-Phe-Pro-p-NHCH2 CH2 CH2 --C6 H4 C(=NH)NH2.HCl] | 1,000 ng/mL | 14,000 ng/mL | 14,400 ng/mL | – | – | – | –
0.07 × 10^6 (L/mole) | 0.14 × 10^6 (L/mole) | 0.05 × 10^6 (L/mole) | < 0.001 × 10^6 (L/mole) | < 0.001 × 10^6 (L/mole) | CCS(=O)(=O)N[C@H](Cc1ccccc1)C(=O)N1CCC[C@H]1C(=O)NCCCc1cccc(C(=N)N)c1 [Example 31, EtSO2 -D-Phe-Pro-m-NHCH2 CH2 CH2 --C6 H4 C(=NH)NH2.HCl] | 10,800 ng/mL | 34,500 ng/mL | 30,000 ng/mL | – | – | – | –

More lines, now with the values behind:

Compound | Kass Human Thrombin (Human Thrombin; [4]) | Kass Xa (factor Xa; [5]) | Kass Trypsin (Bovine trypsin; [6]) | Kass Plasmin (Human plasmin; [7]) | Kass t-PA (t-PA) | Human Plasma Anticoagulation 2× Clotting time TT (Human plasma [1]) | Human Plasma Anticoagulation 2× Clotting time APTT (Human plasma [2]) | Human Plasma Anticoagulation 2× Clotting time PT (Human plasma [3]) | Kass Human Thrombin (Human Thrombin) | Kass Xa (factor Xa) | Kass Trypsin (Bovine trypsin) | Kass Plasmin (Human plasmin)
1-Piq-Pro-p-NHCH2 C6 H4 C(NH)NH2.2HCl [Example 18] | 180 × 10^6 (L/mole) | 0.21 × 10^6 (L/mole) | 14 × 10^6 (L/mole) | 0.085 × 10^6 (L/mole) | 0.0094 × 10^6 (L/mole) | 7 ng/mL | 79 ng/mL | 170 ng/mL | – | – | – | –
N=C(N)c1ccc(CNC(=O)[C@@H]2C[C@@H]3CCCC[C@@H]3N2C(=O)[C@H]2CCCCN2)cc1 (relative stereo) [Example 20, D-hPro-Ohi-p-NHCH2 C6 H4 C(NH)NH2.3HCl] | – | 0.10 × 10^6 (L/mole) | 19 × 10^6 (L/mole) | 0.10 × 10^6 (L/mole) | 0.0077 × 10^6 (L/mole) | 62 ng/mL | 550 ng/mL | 600 ng/mL | 10 | – | – | –
CCS(=O)(=O)N[C@@H](C(=O)N1[C@H](C(=O)NCc2ccc(C(=N)N)cc2)C[C@@H]2CCCC[C@@H]21)c1ccccc1 (relative stereo) [Example 44, EtSO2 -Phg-cis-Ohi-p-NHCH2 C6 H4 C(NH)NH2.HCl] | – | – | – | – | 0.04 × 10^6 (L/mole) | 4 ng/mL | 100 ng/mL | 170 ng/mL | – | 0.66 | 2,600 | 1.8
CCS(=O)(=O)N[C@H](Cc1ccccc1)C(=O)N1[C@H](C(=O)NCc2ccc(C(=N)N)cc2)C[C@@H]2CCCC[C@@H]21 (relative stereo) [Example 45, EtSO2 -Phe-cis-Ohi-p-NHCH2 C6 H4 C(NH)NH2.HCl] | – | 1.5 × 10^6 (L/mole) | 110 × 10^6 (L/mole) | 1.1 × 10^6 (L/mole) | 0.77 × 10^6 (L/mole) | 8 ng/mL | 200 ng/mL | 330 ng/mL | 610 | – | – | –
N=C(N)c1ccc(CNC(=O)[C@@H]2C[C@@H]3CCCC[C@@H]3N2C(=O)[C@@H](CC2CCCCC2)NCC(=O)O)cc1 (relative stereo) [Example 49, HOOCCH2 -D-Cha-cis-Ohi-p-NHCH2 C6 H4 C(NH)NH2.HCl] | – | 3.4 × 10^6 (L/mole) | 940 × 10^6 (L/mole) | 0.84 × 10^6 (L/mole) | 0.04 × 10^6 (L/mole) | 5 ng/mL | 130 ng/mL | 130 ng/mL | 400 | – | – | –
N=C(N)c1cccc(CNC(=O)[C@@H]2CCCN2C(=O)[C@H](N)Cc2ccccc2)c1 [Example 16, D-Phe-Pro-m-NHCH2 C6 H4 C(NH)NH2.0.75HCl] | 0.97 × 10^6 (L/mole) | 0.0051 × 10^6 (L/mole) | 0.02 × 10^6 (L/mole) | 0.0017 × 10^6 (L/mole) | 0.0012 × 10^6 (L/mole) | 650 ng/mL | 8,600 ng/mL | 8,500 ng/mL | – | – | – | –
N=C(N)c1ccc(CNC(=O)[C@@H]2CCCN2C(=O)[C@H]2C[C@H]3CCCC[C@H]3CN2)cc1 [Example 19, D-3-Piq-Pro-p-NHCH2 C6 H4 C(NH)NH2.3HCl] | – | 0.14 × 10^6 (L/mole) | 41 × 10^6 (L/mole) | 0.16 × 10^6 (L/mole) | 0.0056 × 10^6 (L/mole) | 58 ng/mL | 300 ng/mL | 540 ng/mL | – | – | – | –
CCS(=O)(=O)N[C@H](Cc1ccccc1)C(=O)N1CCC[C@H]1C(=O)NCc1cccc(C(=N)N)c1 [Example 24, EtSO2 -D-Phe-Pro-m-NHCH2 --C6 H4 C(=NH)NH2.HCl] | 0.78 × 10^6 (L/mole) | < 0.001 × 10^6 (L/mole) | 0.03 × 10^6 (L/mole) | < 0.001 × 10^6 (L/mole) | < 0.001 × 10^6 (L/mole) | 1,000 ng/mL | 25,900 ng/mL | 25,000 ng/mL | – | – | – | –
